Laboratory results from patent US11235976B2, “Nanocarbon-iron composite system as well as composition, preparation method and use thereof” (Chongqing Lummy Pharmaceutical Co., LTD, priority 2017, dated 2022).

Experiments:
[1] = tested on: SKOV3 ovarian cancer cells; experiment: Cell experiment, cell survival rate; type: cell-based; settings: iron preparation alone 13.65 μg/mL, 48 h
Method: (§1) Cells growing in a log phase are collected, the concentration of the cell suspension is adjusted, 100 μL of cell suspension is added to each well and the cells are plated (edge wells are filled with sterile PBS) at a density of 1×10^3-10^4 cells/well. The cells are incubated for 24 hours at 37° C. under the condition of 5% CO2, a nanocarbon-iron solution having a concentration gradient (nanocarbon content: 125, 62.5, 15.63 and 3.91 μg/mL; and ferric ion content: 13.65, 6.83, 1.71 and 0.43 μg/mL) is added, and three sub-wells are set. Then the cells are incubated for 48 hours at 37° C. under the condition of 5% CO2. 10 μL of CCK8 solution is added to each well and then the cells are continuously incubated for 2 hours. The absorbance of each well is measured at OD=450 nm with the microplate reader. In addition, a negative control group, nanocarbon control groups having the same concentration and iron preparation control groups having the same concentration are set.
as §1, with “and 1” for “100”, “of a 6-well plate” for “and the cells are plated (edge wells are filled with sterile PBS)”, “3×10^4” for “1×10^3-10^4”, “1.71,” for “1.71 and”, “The” for “10 μL of CCK8 solution is added to each well and then the”, “trypsinized and counted.” for “continuously incubated for 2 hours. The absorbance of each well is measured at OD=450 nm with the microplate reader.”

[2] = tested on: SMMC7721 liver cancer cells; experiment: Cell experiment, cell survival rate; type: cell-based; settings: SMMC-7721, 48 h
Method: as §1
as §1, with “and 1” for “100”, “of a 6-well plate” for “and the cells are plated (edge wells are filled with sterile PBS)”, “3×10^4” for “1×10^3-10^4”, “1.71,” for “1.71 and”, “The” for “10 μL of CCK8 solution is added to each well and then the”, “trypsinized and counted.” for “continuously incubated for 2 hours. The absorbance of each well is measured at OD=450 nm with the microplate reader.”

[3] = tested on: TPC-1 thyroid cancer cells; experiment: Cell experiment, cell survival rate; type: cell-based; settings: 48 h
Method: as §1
as §1, with “and 1” for “100”, “of a 6-well plate” for “and the cells are plated (edge wells are filled with sterile PBS)”, “3×10^4” for “1×10^3-10^4”, “1.71,” for “1.71 and”, “The” for “10 μL of CCK8 solution is added to each well and then the”, “trypsinized and counted.” for “continuously incubated for 2 hours. The absorbance of each well is measured at OD=450 nm with the microplate reader.”

[4] = tested on: murine liver cancer H22 cells; experiment: Cell experiment, cell survival rate; type: cell-based; settings: 48 h
Method: as §1
as §1, with “and 1” for “100”, “of a 6-well plate” for “and the cells are plated (edge wells are filled with sterile PBS)”, “3×10^4” for “1×10^3-10^4”, “1.71,” for “1.71 and”, “The” for “10 μL of CCK8 solution is added to each well and then the”, “trypsinized and counted.” for “continuously incubated for 2 hours. The absorbance of each well is measured at OD=450 nm with the microplate reader.”

[5] = tested on: subcutaneous transplantation tumors of 9 types of cancer cells; experiment: Tumor growth inhibition experiments, subcutaneous transplantation tumors; type: in vivo, mice; settings: FIGS. 4-39
Method: Cells growing in a log phase are collected, the concentration of the cell suspension is adjusted to 3×10^7 cells/mL, and the cell suspension is inoculated subcutaneously into the right upper extremities of nude mice at the inoculation dosage of 0.1 mL (about 3×10^6 cells) per mouse. When the average tumor volume of the inoculated mice reaches 100 mm^3, the tumor-bearing mice are randomly divided into the following groups (8 nude mice per group): a negative control group (0.9% sodium chloride injection), a nanocarbon control group, an iron preparation control group, a nanocarbon-iron suspension experimental group, and a cis-platinum control group (intraperitoneal injection at the dosage of 5 mg/kg). The above various drugs are injected into the tumors. The tumor volume changes are recorded, and the formula for calculating the volume is Volume=(length×the square of width)/2.
Milky white and thick ascites is extracted from the H22 tumor-bearing mice, the concentration of the cell suspension is adjusted to be 3×10^7 cells/mL, 0.1 mL of cell suspension (about 3×10^6 cells) is inoculated subcutaneously into the right upper extremity of each of Kunming mice. When the average tumor volume of the inoculated mice reaches 100 mm^3, the tumor-bearing mice are randomly divided into the following groups (8 mice per group): a negative control group (0.9% sodium chloride injection), a nanocarbon control group, an iron preparation control group, a nanocarbon-iron suspension experimental group, and a cis-platinum control group (intraperitoneal injection at the dosage of 5 mg/kg). The above various drugs are injected into the tumors. The tumor volume changes are recorded, and the formula for calculating the volume is Volume=(length×the square of width)/2.

[6] = tested on: H22 metastatic lymph nodes; experiment: Lymph node metastasis inhibition experiment; type: in vivo, Kunming mouse; settings: popliteal lymph nodes
Method: (§2) Milky white and thick ascites is extracted from the H22 tumor-bearing mice, the concentration is adjusted to be 3×10^7 cells/mL, 0.05 mL of cell suspension (about 1.5×10^6 cells) is inoculated subcutaneously into the left hind foot pads of each Kunming mouse, and thus a lymph node metastasis mouse model is obtained. The mice are treated when the diameter of the tumor reaches 6-8 mm and there is no ulcer and necrosis. The mice are randomly divided into four groups (10 mice per group): a negative control group (0.9% sodium chloride injection), a nanocarbon control group, an iron preparation control group and a nanocarbon-iron suspension experimental group. 10 days after inoculation, the mice are killed, and popliteal lymph nodes are collected, weighed and fixed for pathological examination.

[7] = tested on: A549 metastatic lymph nodes; experiment: Lymph node metastasis inhibition experiment; type: in vivo, nude mouse; settings: popliteal lymph nodes
Method: as §2, with “Cells growing in a log phase are collected,” for “Milky white and thick ascites is extracted from the H22 tumor-bearing mice,”, “concentration of the cell suspension” for “concentration”, “to” for “to be”, “the” for “0.05 mL of”, “suspension” for “suspension (about 1.5×10^6 cells)”, “nude mouse at the inoculation volume of 0.05 mL (about 1.5×10^6 cells)” for “Kunming mouse,”

[8] = tested on: HCT116 metastatic lymph nodes; experiment: Lymph node metastasis inhibition experiment; type: in vivo, nude mouse; settings: popliteal lymph nodes
Method: as §2, with “Cells growing in a log phase are collected,” for “Milky white and thick ascites is extracted from the H22 tumor-bearing mice,”, “concentration of the cell suspension” for “concentration”, “to” for “to be”, “the” for “0.05 mL of”, “suspension” for “suspension (about 1.5×10^6 cells)”, “nude mouse at the inoculation volume of 0.05 mL (about 1.5×10^6 cells)” for “Kunming mouse,”

[9] = tested on: Hela metastatic lymph nodes; experiment: Lymph node metastasis inhibition experiment; type: in vivo, nude mouse; settings: popliteal lymph nodes
Method: as §2, with “Cells growing in a log phase are collected,” for “Milky white and thick ascites is extracted from the H22 tumor-bearing mice,”, “concentration of the cell suspension” for “concentration”, “to” for “to be”, “the” for “0.05 mL of”, “suspension” for “suspension (about 1.5×10^6 cells)”, “nude mouse at the inoculation volume of 0.05 mL (about 1.5×10^6 cells)” for “Kunming mouse,”

[10] = tested on: MDA-MB-231 metastatic lymph nodes; experiment: Lymph node metastasis inhibition experiment; type: in vivo, nude mouse; settings: popliteal lymph nodes
Method: as §2, with “Cells growing in a log phase are collected,” for “Milky white and thick ascites is extracted from the H22 tumor-bearing mice,”, “concentration of the cell suspension” for “concentration”, “to” for “to be”, “the” for “0.05 mL of”, “suspension” for “suspension (about 1.5×10^6 cells)”, “nude mouse at the inoculation volume of 0.05 mL (about 1.5×10^6 cells)” for “Kunming mouse,”

[11] = tested on: SGC-7901 metastatic lymph nodes; experiment: Lymph node metastasis inhibition experiment; type: in vivo, nude mouse; settings: popliteal lymph nodes
Method: as §2, with “Cells growing in a log phase are collected,” for “Milky white and thick ascites is extracted from the H22 tumor-bearing mice,”, “concentration of the cell suspension” for “concentration”, “to” for “to be”, “the” for “0.05 mL of”, “suspension” for “suspension (about 1.5×10^6 cells)”, “nude mouse at the inoculation volume of 0.05 mL (about 1.5×10^6 cells)” for “Kunming mouse,”

[12] = tested on: SKOV3 metastatic lymph nodes; experiment: Lymph node metastasis inhibition experiment; type: in vivo, nude mouse; settings: popliteal lymph nodes
Method: as §2, with “Cells growing in a log phase are collected,” for “Milky white and thick ascites is extracted from the H22 tumor-bearing mice,”, “concentration of the cell suspension” for “concentration”, “to” for “to be”, “the” for “0.05 mL of”, “suspension” for “suspension (about 1.5×10^6 cells)”, “nude mouse at the inoculation volume of 0.05 mL (about 1.5×10^6 cells)” for “Kunming mouse,”

[13] = tested on: SMMC-7721 metastatic lymph nodes; experiment: Lymph node metastasis inhibition experiment; type: in vivo, nude mouse; settings: popliteal lymph nodes
Method: as §2, with “Cells growing in a log phase are collected,” for “Milky white and thick ascites is extracted from the H22 tumor-bearing mice,”, “concentration of the cell suspension” for “concentration”, “to” for “to be”, “the” for “0.05 mL of”, “suspension” for “suspension (about 1.5×10^6 cells)”, “nude mouse at the inoculation volume of 0.05 mL (about 1.5×10^6 cells)” for “Kunming mouse,”

[14] = tested on: TPC-1 metastatic lymph nodes; experiment: Lymph node metastasis inhibition experiment; type: in vivo, nude mouse; settings: popliteal lymph nodes
Method: as §2, with “Cells growing in a log phase are collected,” for “Milky white and thick ascites is extracted from the H22 tumor-bearing mice,”, “concentration of the cell suspension” for “concentration”, “to” for “to be”, “the” for “0.05 mL of”, “suspension” for “suspension (about 1.5×10^6 cells)”, “nude mouse at the inoculation volume of 0.05 mL (about 1.5×10^6 cells)” for “Kunming mouse,”

[15] = tested on: lymph node metastasis of 9 types of tumor cells; experiment: Lymph node metastasis inhibition experiment, summary; type: in vivo, mice
Method: as §2, with “Cells growing in a log phase are collected,” for “Milky white and thick ascites is extracted from the H22 tumor-bearing mice,”, “concentration of the cell suspension” for “concentration”, “to” for “to be”, “the” for “0.05 mL of”, “suspension” for “suspension (about 1.5×10^6 cells)”, “nude mouse at the inoculation volume of 0.05 mL (about 1.5×10^6 cells)” for “Kunming mouse,”
as §2

[16] = iron preparation alone 0.43 μg/mL
[17] = iron preparation alone 1.71 μg/mL
[18] = iron preparation alone 6.83 μg/mL
[19] = iron preparation alone 13.65 μg/mL

## ferrous gluconate
[1]
  Cell Survival Rate: 97.11%
[2]; [16]
  Cell Survival Rate: 100%
[2]; [17]
  Cell Survival Rate: 96.12%
[2]; [18]
  Cell Survival Rate: 97.68%
[2]; [19]
  Cell Survival Rate: 100%
[3]; [16]
  Cell Survival Rate: 100%
[3]; [17]
  Cell Survival Rate: 100%
[3]; [18]
  Cell Survival Rate: 100%
[3]; [19]
  Cell Survival Rate: 98.34%
[4]; [16]
  Cell Survival Rate: 100%
[4]; [17]
  Cell Survival Rate: 100%
[4]; [18]
  Cell Survival Rate: 100%
[4]; [19]
  Cell Survival Rate: 96.14%
[5]
  inhibition effect on growth of 9 types of tumors: do not have an inhibition effect
[6]
  Weight of Lymph Node: 57.19 ± 15.92 mg
[7]
  Weight of Lymph Node: 47.58 ± 20.34 mg
[8]
  Weight of Lymph Node: 55.18 ± 20.12 mg
[9]
  Weight of Lymph Node: 32.14 ± 21.36 mg
[10]
  Weight of Lymph Node: 40.19 ± 20.69 mg
[11]
  Weight of Lymph Node: 52.14 ± 17.43 mg
[12]
  Weight of Lymph Node: 33.57 ± 5.94 mg
[13]
  Weight of Lymph Node: 58.97 ± 19.63 mg
[14]
  Weight of Lymph Node: 40.16 ± 9.03 mg
[15]
  inhibition effect on the metastatic lymph nodes: do not have an inhibition effect
